Results on 26 compounds are retold here after US20120077828A1, “CHEMICAL COMPOUNDS” (priority 2010, published 2012).

Some results are limits rather than exact numbers.

In this test the target is T1, PERK (Homo sapiens, UniProt Q9NZJ5).
T1 construct: GST-PERK (536-1116) cytoplasmic domain was purchased from Invitrogen; purchased Invitrogen PV5106
T1 sequence (Q9NZJ5 536-1116): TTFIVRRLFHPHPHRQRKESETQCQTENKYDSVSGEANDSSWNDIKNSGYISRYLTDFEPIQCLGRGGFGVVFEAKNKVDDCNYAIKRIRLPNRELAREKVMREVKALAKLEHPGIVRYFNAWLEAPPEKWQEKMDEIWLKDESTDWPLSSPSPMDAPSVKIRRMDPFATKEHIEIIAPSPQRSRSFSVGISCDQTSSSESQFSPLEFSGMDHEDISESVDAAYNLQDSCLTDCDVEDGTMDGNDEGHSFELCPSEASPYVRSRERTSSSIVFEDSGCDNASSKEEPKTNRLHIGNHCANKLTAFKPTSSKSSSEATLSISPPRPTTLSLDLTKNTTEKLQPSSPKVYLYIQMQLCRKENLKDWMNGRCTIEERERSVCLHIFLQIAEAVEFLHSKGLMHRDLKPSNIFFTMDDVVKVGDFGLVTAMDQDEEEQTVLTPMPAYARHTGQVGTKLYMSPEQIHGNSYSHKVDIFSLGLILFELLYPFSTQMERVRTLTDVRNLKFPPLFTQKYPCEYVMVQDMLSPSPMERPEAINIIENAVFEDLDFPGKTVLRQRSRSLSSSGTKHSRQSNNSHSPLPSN
Description: PKR-like Endoplasmic Reticulum Kinase (PERK) Assay (HTRF Format). The test is classed as biochemical. Conditions: average, in at least one set of experimental runs; read-out: average pIC50 value against PERK (converted). The protocol:
PKR-like Endoplasmic Reticulum Kinase (PERK) Assay (HTRF Format)
Source of substrate: elF2α: 6-His-Full-length human elF2α is purified from baculovirus expression in Sf9 insect cells. The elF2 protein is buffer exchanged by dialysis into PBS, chemically modified by NHS-LC-Biotin and then buffer exchanged by dialysis into 50 mm TRIS pH 7.2/250 mM NaCl/5 mM DTT. Protein is aliquoted and stored at −80° C.
Assays were performed by adding GST-PERK solution to assay plates containing compounds and pre-incubated for 30 minutes at room temperature. The reaction is initiated by the addition of ATP and EIF2α substrate solution. Quench solution is added following a one hour incubation at room temperature. The plates are covered for 2 hours at room temperature prior to determination of signal. The resulting signal is quantified on a Viewlux Reader (PerkinElmer). The APC Signal is normalized to the Europium signal by transforming the data through an APC/Eu calculation.
Compounds under analysis were dissolved in DMSO to 1.0 mM and serially diluted 1 to 3 with DMSO through eleven dilutions. 0.1 μl of each concentration was transferred to the corresponding well of an assay plate. This creates a final compound concentration range from 0.00017 to 10 μM.
The data for concentration response curves were plotted as % Inhibition calculated with the data reduction formula 100*(1−(U1−C2)/(C1−C2)) versus concentration of compound where U is the unknown value, C1 is the average control value obtained for 1% DMSO, and C2 is the average control value obtained for 0.1 M EDTA. Data were fitted with a curve described by:
where A is the minimum y, B is the maximum y concentration [M], D is the slope factor, and x is the log10 of the compound.
In the above data, pIC50 is defined as −log(IC50) where the IC50 value is expressed in molar units.
For orientation: In TR-FRET formats the signal depends on donor and acceptor labels being close together.
Consider `Cn1cc(-c2ccc3c(c2F)CCN3C(=O)Cc2ccc(F)cc2)c2c(N)ncnc21` [Example 141, 5-{4-fluoro-1-[(4-fluorophenyl)acetyl]-2,3-dihydro-1H-indol-5-yl}-7-methyl-7H-pyrrolo[2,3-d]pyrimidin-4-amine], for which the IC50 was not above 0.316 nM.

In the case of `Cc1cccc(CC(=O)N2CCc3cc(-c4nn(C)c5ncnc(N)c45)ccc32)c1` [Example 18, 1-methyl-3-(1[(3-methylphenyl)acetyl]-2,3-dihydro-1H-indol-5-yl)-1H-pyrazolo[3,4-d]pyrimidin-4-amine], the IC50 was not above 1 nM.

Regarding `Cn1cc(-c2ccc3c(c2F)CCN3C(=O)Cc2cccc(C(F)(F)F)n2)c2c(N)ncnc21` [Example 137, 5-(4-fluoro-1-{[6-(trifluoromethyl)-2-pyridinyl]acetyl}-2,3-dihydro-1H-indol-5-yl)-7-methyl-7H-pyrrolo[2,3-d]pyrimidin-4-amine], the IC50 was not above 1 nM. For `Cc1cc(C)cc(CC(=O)N2CCc3cc(-c4nn(C)c5ncnc(N)c45)ccc32)c1` [Example 30, 3-{1-[(3,5-dimethylphenyl)acetyl]-2,3-dihydro-1H-indol-5-yl}-1-methyl-1H-pyrazolo[3,4-d]pyrimidin-4-amine] the value was not above 1 nM.

For `Cc1cccc(CC(=O)N2CCc3cc(-c4cn(C)c5ncnc(N)c45)ccc32)n1` [Example 121, 7-methyl-5-{1-[(6-methyl-2-pyridinyl)acetyl]-2,3-dihydro-1H-indol-5-yl}-7H-pyrrolo[2,3-d]pyrimidin-4-amine], the IC50 is not above 2.51 nM. `Cc1ccccc1CC(=O)N1CCc2cc(-c3cn(C)c4ncnc(N)c34)ccc21` [Example 33, 7-methyl-5-{1-[(2-methylphenyl)acetyl]-2,3-dihydro-1H-indol-5-yl}-7H-pyrrolo[2,3-d]pyrimidin-4-amine]: the IC50 was not above 0.316 nM. For `Cn1cc(-c2ccc3c(c2)CCN3C(=O)Cc2cc(F)cc(F)c2F)c2c(N)ncnc21` [Example 90, 7-methyl-5-{1-[(2,3,5-trifluorophenyl)acetyl]-2,3-dihydro-1H-indol-5-yl}-7H-pyrrolo[2,3-d]pyrimidin-4-amine] the value was not above 0.316 nM.

Consider `Cn1cc(-c2cnc(N)c3c(-c4ccc5c(c4)CCN5C(=O)Cc4ccccc4)csc23)cn1` [Example 14, 7-(1-methyl-1H-pyrazol-4-yl)-3-[1-(phenylacetyl)-2,3-dihydro-1H-indol-5-yl]thieno[3,2-c]pyridin-4-amine], for which the IC50 is not above 2.51 nM. For `Nc1ncc(Cl)c2occ(-c3ccc4c(c3)CCN4C(=O)Cc3cc(F)ccc3F)c12` [Example 131, 7-chloro-3-{1-[(2,5-difluorophenyl)acetyl]-2,3-dihydro-1H-indol-5-yl}furo[3,2-c]pyridin-4-amine] the value was not above 1 nM; for `Cc1cccc(CC(=O)N2CCc3cc(-c4cn(C5CNC5)c5ncnc(N)c45)ccc32)c1` [Example 92, 7-(3-azetidinyl)-5-{1-[(3-methylphenyl)acetyl]-2,3-dihydro-1H-indol-5-yl}-7H-pyrrolo[2,3-d]pyrimidin-4-amine], not above 1 nM. For `Cc1cccc(CC(=O)N2CCc3cc(-c4cn(C)c5ncnc(N)c45)ccc32)c1F` [Example 71, 5-{1-[(2-fluoro-3-methylphenyl)acetyl]-2,3-dihydro-1H-indol-5-yl}-7-methyl-7H-pyrrolo[2,3-d]pyrimidin-4-amine] the value was not above 0.316 nM.

In the case of `Cn1cc(-c2ccc3c(c2)CCN3C(=O)Cc2cc(Cl)ccc2F)c2c(N)ncnc21` [Example 100, 5-{1-[(5-chloro-2-fluorophenyl)acetyl]-2,3-dihydro-1H-indol-5-yl}-7-methyl-7H-pyrrolo[2,3-d]pyrimidin-4-amine], the IC50 was not above 0.316 nM.

As for `Cn1cc(-c2ccc3c(c2)CCN3C(=O)Cc2ccccc2)c2c(N)ncnc21` [Example 4, 7-methyl-5-[1-(phenylacetyl)-2,3-dihydro-1H-indol-5-yl]-7H-pyrrolo[2,3-d]pyrimidin-4-amine], the IC50 was not above 2.51 nM.

On to `Cc1cccc(CC(=O)N2CCc3cc(-c4nn(C(C)C)c5ncnc(N)c45)ccc32)c1` [Example 82, 1-(1-methylethyl)-3-{1-[(3-methylphenyl)acetyl]-2,3-dihydro-1H-indol-5-yl}-1H-pyrazolo[3,4-d]pyrimidin-4-amine], for which the IC50 was not above 2.51 nM. As for `Cn1cc(-c2ccc3c(c2)CCN3C(=O)Cc2cc(F)cc(F)c2)c2c(N)ncnc21` [Example 89, 5-{1-[(3,5-difluorophenyl)acetyl]-2,3-dihydro-1H-indol-5-yl}-7-methyl-7H-pyrrolo[2,3-d]pyrimidin-4-amine], the IC50 is not above 1 nM. For `Cc1ccc(C)c(CC(=O)N2CCc3cc(-c4nn(C)c5ncnc(N)c45)ccc32)c1` [Example 28, 3-{1-[(2,5-dimethylphenyl)acetyl]-2,3-dihydro-1H-indol-5-yl}-1-methyl-1H-pyrazolo[3,4-d]pyrimidin-4-amine] the value was not above 0.316 nM.

On to `Nc1ncc(-c2cn[nH]c2)c2scc(-c3ccc4c(c3)CCN4C(=O)Cc3ccccc3)c12` [Example 13, 3-[1-(phenylacetyl)-2,3-dihydro-1H-indol-5-yl]-7-(1H-pyrazol-4-yl)thieno[3,2-c]pyridin-4-amine], for which the IC50 is not above 1 nM. Under `Cc1ccc(F)c(CC(=O)N2CCc3cc(-c4cn(C)c5ncnc(N)c45)ccc32)c1` [Example 73, 5-{1-[(2-fluoro-5-methylphenyl)acetyl]-2,3-dihydro-1H-indol-5-yl}-7-methyl-7H-pyrrolo[2,3-d]pyrimidin-4-amine] stands not above 1 nM. For `NCCc1cnc(N)c2c(-c3ccc4c(c3F)CCN4C(=O)Cc3cc(F)ccc3F)coc12` [Example 146, 7-(2-aminoethyl)-3-{1-[(2,5-difluorophenyl)acetyl]-4-fluoro-2,3-dihydro-1H-indol-5-yl}furo[3,2-c]pyridin-4-amine] the value was not above 2.51 nM; for `Cn1cc(-c2ccc3c(c2F)CCN3C(=O)Cc2ccccc2)c2c(N)ncnc21` [Example 112, 5-[4-fluoro-1-(phenylacetyl)-2,3-dihydro-1H-indol-5-yl]-7-methyl-7H-pyrrolo[2,3-d]pyrimidin-4-amine], not above 0.316 nM; for `Cc1cccc(CC(=O)N2CCc3cc(-c4cn(C)c5ncnc(N)c45)ccc32)c1` [Example 37, 7-methyl-5-{1-[(3-methylphenyl)acetyl]-2,3-dihydro-1H-indol-5-yl}-7H-pyrrolo[2,3-d]pyrimidin-4-amine], not above 0.316 nM. Under `Cn1cc(-c2ccc3c(c2)CCN3C(=O)Cc2cc(F)cc(Cl)c2)c2c(N)ncnc21` [Example 53, 5-{1-[(3-chloro-5-fluorophenyl)acetyl]-2,3-dihydro-1H-indol-5-yl}-7-methyl-7H-pyrrolo[2,3-d]pyrimidin-4-amine] stands not above 0.316 nM.

For `Cc1cccc(CC(=O)N2CCc3cc(-c4csc5ncnc(N)c45)ccc32)c1` [Example 64, 5-{1-[(3-methylphenyl)acetyl]-2,3-dihydro-1H-indol-5-yl}thieno[2,3-d]pyrimidin-4-amine], the IC50 was not above 1 nM. Turning to `Cc1cccc(CC(=O)N2CCc3c2ccc(-c2cn(C)c4ncnc(N)c24)c3F)n1` [Example 136, 5-{4-fluoro-1-[(6-methyl-2-pyridinyl)acetyl]-2,3-dihydro-1H-indol-5-yl}-7-methyl-7H-pyrrolo[2,3-d]pyrimidin-4-amine], the IC50 is not above 1 nM. Under `Nc1ncnc2c1c(-c1ccc3c(c1)CCN3C(=O)Cc1cc(F)ccc1F)cn2C1CNC1` [Example 144, 7-(3-azetidinyl)-5-{1-[(2,5-difluorophenyl)acetyl]-2,3-dihydro-1H-indol-5-yl}-7H-pyrrolo[2,3-d]pyrimidin-4-amine] stands not above 0.316 nM; under `Nc1ncnc2[nH]cc(-c3ccc4c(c3)CCN4C(=O)Cc3cccc(C(F)(F)F)c3)c12` [Example 148, 5-(1-{[3-(trifluoromethyl)phenyl]acetyl}-2,3-dihydro-1H-indol-5-yl)-1H-pyrrolo[2,3-d]pyrimidin-4-amine], not above 0.316 nM.
